Series [1] has as its system Mus musculus. Nature of the series: Hypoglycemic activity in 12 hrs fasted ICR mouse assessed as reduction in blood glucose level at 25 nmol/kg, ip dosed 30 mins before glucose challenge measured up to 120 mins by OGTT method. Format: functional, organism-based. The settings on record: time 150.0 min.
The next series has as its target Albumin (Homo sapiens, UniProt P02768). Nature of the series: Binding affinity to human serum albumin assessed as retention factor by HPAC method. Format: ADME.
The target in series [2] is Glucagon-like peptide 1 receptor (Homo sapiens, UniProt P43220). Nature of the series: Agonist activity at human GLP-1R expressed in HEK293 cells assessed as stimulation of cAMP accumulation incubated for 60 mins by HTRF assay. It is filed as functional, cell-based. For orientation: Cyclic AMP is a second messenger, typically raised through Gs and lowered through Gi signalling.
Glucagon-like peptide 1 receptor, sequence (P43220 whole entry): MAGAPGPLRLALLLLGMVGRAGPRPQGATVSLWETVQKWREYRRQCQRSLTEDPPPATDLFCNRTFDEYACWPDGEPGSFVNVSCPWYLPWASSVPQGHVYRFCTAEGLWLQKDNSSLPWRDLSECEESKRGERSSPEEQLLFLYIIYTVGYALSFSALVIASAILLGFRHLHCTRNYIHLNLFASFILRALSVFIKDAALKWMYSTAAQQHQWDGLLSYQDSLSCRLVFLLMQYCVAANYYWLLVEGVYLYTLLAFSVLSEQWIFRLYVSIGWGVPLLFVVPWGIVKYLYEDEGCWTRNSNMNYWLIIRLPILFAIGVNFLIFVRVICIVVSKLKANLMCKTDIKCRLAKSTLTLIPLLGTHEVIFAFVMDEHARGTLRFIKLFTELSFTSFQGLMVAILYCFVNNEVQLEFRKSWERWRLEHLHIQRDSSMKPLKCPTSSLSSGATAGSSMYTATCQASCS

Series [3] can be described thus: Stability in Sprague-Dawley rat plasma assessed as half life at 1000 ng/ml measured up to 48 hrs under shaking condition by LC-MS/MS analysis. It is filed as ADME, cell-free.
Series [4] relates to Mus musculus. In words: Hypoglycemic activity in non-fasted db/db […] mouse assessed as reduction in blood glucose level at 25 nmol/kg, ip dosed 30 mins before glucose challenge measured up to 120 mins by OGTT method. Format: functional, organism-based.
A short description of series [5]: Stability in Sprague-Dawley rat plasma at 1000 ng/ml measured up to 48 hrs under shaking condition by LC-MS/MS analysis. It is filed as ADME, cell-free.

Calls of active or inactive are those of the source. Starred links: 1 amine or outer side, 2 acyl side, 3 side chain; linkers in the order of their positions; H or OH if unused. Positions of bridges follow the written chain, without caps; N, C: chain ends. Non-standard residues stand in square brackets, D forms with d. Residues, ends and D or L forms follow the SMILES beside them. Groups on a side chain read outwards from the residue. Chains are numbered I, II in the order given. ξ: configuration not given here. *: point of attachment. X3 = Cc1ccc(C)c(OCCCC(C)(C)C(=O)OCC(=O)NCCCCCC(=O)N[C@@H](CCC(=O)NCCCC[C@H](NO[*:1])C(=O)[*:2])C(=O)O)c1; X1 = Cc1ccc(C)c(OCCCC(C)(C)C(=O)OCC(=O)NCCCCCCCCCC(NC(=O)COC(=O)C(C)(C)CCCOc2cc(C)ccc2C)C(=O)*)c1; X2 = Cc1ccc(C)c(OCCCC(C)(C)C(=O)OCC(=O)NCCCCC(NC(=O)COC(=O)C(C)(C)CCCOc2cc(C)ccc2C)C(=O)*)c1; Glycoloyl(O-gemfibrozoyl) = Cc1ccc(C)c(OCCCC(C)(C)C(=O)OCC(=O)*)c1; γGlu = O=C(O)[C@H](CCC(=O)[*:2])N[*:1]; Thr(3ξ) = CC(O)[C@H](N)C(=O)O; Aun = NCCCCCCCCCCC(=O)O; ξK = NCCCCC(N)C(=O)O; Ahx = NCCCCCC(=O)O

By EC50 is commonly meant the concentration at which the effect is half-maximal. The term half-life denotes the time needed for the level to fall by half in the phase considered.

Albumin, sequence (P02768 whole entry): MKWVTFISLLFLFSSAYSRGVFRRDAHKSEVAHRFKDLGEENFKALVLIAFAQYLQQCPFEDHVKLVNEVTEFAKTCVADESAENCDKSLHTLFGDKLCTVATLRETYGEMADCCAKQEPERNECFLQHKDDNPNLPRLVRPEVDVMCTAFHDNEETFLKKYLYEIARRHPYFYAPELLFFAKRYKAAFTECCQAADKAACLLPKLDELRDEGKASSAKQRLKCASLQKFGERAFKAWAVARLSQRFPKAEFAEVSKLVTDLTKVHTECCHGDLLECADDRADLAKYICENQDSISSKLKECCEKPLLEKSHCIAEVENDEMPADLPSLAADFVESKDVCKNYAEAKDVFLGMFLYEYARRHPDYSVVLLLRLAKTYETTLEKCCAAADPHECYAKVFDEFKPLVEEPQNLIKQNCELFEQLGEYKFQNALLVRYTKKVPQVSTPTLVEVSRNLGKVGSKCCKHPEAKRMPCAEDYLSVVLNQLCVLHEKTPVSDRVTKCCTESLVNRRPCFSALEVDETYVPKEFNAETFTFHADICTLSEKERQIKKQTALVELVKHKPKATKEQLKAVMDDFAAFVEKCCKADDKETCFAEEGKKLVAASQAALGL

On to “H-HGEGTYTNDVTEYLEEEAAK([γGlu-Aun-Glycoloyl(O-gemfibrozoyl)])EFIEWLIKGKPSSGAPPSKKKKKK-OH”, for which the result in the series with Mus musculus [1] was Active. The K on Albumin is reported as 7.3. Besides, the EC50 in series [2] amounted to 0.11 nM. Moreover, the half-life at 1000 ng/ml in series [3] was 20.1 h.
For `CC[C@H](C)[C@H](NC(=O)[C@H](CC(C)C)NC(=O)[C@H](Cc1c[nH]c2ccccc12)NC(=O)[C@H](CCC(=O)O)NC(=O)[C@@H](NC(=O)[C@H](Cc1ccccc1)NC(=O)[C@H](CCC(=O)O)NC(=O)[C@H](CCCCNC(=O)CC[C@H](NC(=O)CCCCCNC(=O)COC(=O)C(C)(C)CCCOc1cc(C)ccc1C)C(=O)O)NC(=O)[C@H](C)NC(=O)[C@H](C)NC(=O)[C@H](CCC(=O)O)NC(=O)[C@H](CCC(=O)O)NC(=O)[C@H](CCC(=O)O)NC(=O)[C@H](CC(C)C)NC(=O)[C@H](Cc1ccc(O)cc1)NC(=O)[C@H](CCC(=O)O)NC(=O)[C@@H](NC(=O)[C@@H](NC(=O)[C@H](CC(=O)O)NC(=O)[C@H](CC(N)=O)NC(=O)[C@@H](NC(=O)[C@H](Cc1ccc(O)cc1)NC(=O)[C@@H](NC(=O)CNC(=O)[C@H](CCC(=O)O)NC(=O)CNC(=O)[C@@H](N)Cc1cnc[nH]1)[C@@H](C)O)[C@@H](C)O)C(C)C)C(C)O)[C@@H](C)CC)C(=O)N[C@@H](CCCCN)C(=O)NCC(=O)N[C@@H](CCCCN)C(=O)N1CCC[C@H]1C(=O)N[C@@H](CO)C(=O)N[C@@H](CO)C(=O)NCC(=O)N[C@@H](C)C(=O)N1CCC[C@H]1C(=O)N1CCC[C@H]1C(=O)N1CCC[C@H]1C(=O)N[C@@H](CO)C(=O)O` (stereo partly drawn) (H-HGEGTYTNDV[Thr(3ξ)]EYLEEEAAK([γGlu-Ahx-Glycoloyl(O-gemfibrozoyl)])EFIEWLIKGKPSSGAPPPS-OH), in that order: “Active”, 6.8, 0.083 nM and 17.2 h.
For “H-HGEGTYTNDVTEYLEEEAAK([γGlu-X1])EFIEWLIKGKPSSGAPPSKKKKKK-OH”, in that order: “inactive”, 12.1, 0.31 nM and 33.9 h.
With “H-HGEGTYTNDVTEYLEEEAA[ξK]([γGlu-X2])EFIEWLIKGKPSSGAPPSKKKKKK-OH”, the outcome in the series with Mus musculus [4] and in the series on Mus musculus [1] was Active. The K at Albumin is 11.2. The EC50 in series [2] was 0.091 nM. In series [3], the half-life at 1000 ng/ml is 29.5 h.
Regarding “H-HGEGTYTNDVTEYLEEEAA[ξK]([γGlu-Ahx-Glycoloyl(O-gemfibrozoyl)])EFIEWLIKGKPSSGAPPSKKKKKK-OH”, the result in the series with Mus musculus [1] was Active. Further, the K on Albumin is reported as 6.4. Also, the EC50 in series [2] is 0.053 nM. Besides, the half-life at 1000 ng/ml in series [3] is 16.3 h.
As to `CC[C@H](C)[C@H](NC(=O)[C@H](CC(C)C)NC(=O)[C@H](Cc1c[nH]c2ccccc12)NC(=O)[C@H](CCC(=O)O)NC(=O)[C@@H](NC(=O)[C@H](Cc1ccccc1)NC(=O)[C@H](CCC(=O)O)NC(=O)[C@H](CCCCNC(=O)CC[C@H](NC(=O)CCCCCNC(=O)COC(=O)C(C)(C)CCCOc1cc(C)ccc1C)C(=O)O)NOC(=O)[C@H](C)NC(=O)[C@H](C)NC(=O)[C@H](CCC(=O)O)NC(=O)[C@H](CCC(=O)O)NC(=O)[C@H](CCC(=O)O)NC(=O)[C@H](CC(C)C)NC(=O)[C@H](Cc1ccc(O)cc1)NC(=O)[C@H](CCC(=O)O)NC(=O)[C@@H](NC(=O)[C@@H](NC(=O)[C@H](CC(=O)O)NC(=O)[C@H](CC(N)=O)NC(=O)[C@@H](NC(=O)[C@H](Cc1ccc(O)cc1)NC(=O)[C@@H](NC(=O)CNC(=O)[C@H](CCC(=O)O)NC(=O)CNC(=O)[C@@H](N)Cc1cnc[nH]1)[C@@H](C)O)[C@@H](C)O)C(C)C)[C@@H](C)O)[C@@H](C)CC)C(=O)N[C@@H](CCCCN)C(=O)NCC(=O)N[C@@H](CCCCN)C(=O)O` (I: H-HGEGTYTNDVTEYLEEEAA / II: EFIEWLIKGK-OH; linker I:C-II:N via X3), the outcome in the series with Mus musculus [1] was Active. In series [5], the Stabilty result is on record as “Stable”. In series [2], the EC50 amounted to 0.093 nM. For the same compound, in series [3], the half-life at 1000 ng/ml was 14.2 h.
For `CC[C@H](C)[C@H](NC(=O)[C@H](CC(C)C)NC(=O)[C@H](Cc1c[nH]c2ccccc12)NC(=O)[C@H](CCC(=O)O)NC(=O)[C@@H](NC(=O)[C@H](Cc1ccccc1)NC(=O)[C@H](CCC(=O)O)NC(=O)[C@H](CCCCNC(=O)CC[C@H](NC(=O)CCCCCCCCCCNC(=O)COC(=O)C(C)(C)CCCOc1cc(C)ccc1C)C(=O)O)NC(=O)[C@H](C)NC(=O)[C@H](C)NC(=O)[C@H](CCC(=O)O)NC(=O)[C@H](CCC(=O)O)NC(=O)[C@H](CCC(=O)O)NC(=O)[C@H](CC(C)C)NC(=O)[C@H](Cc1ccc(O)cc1)NC(=O)[C@H](CCC(=O)O)NC(=O)[C@@H](NC(=O)[C@@H](NC(=O)[C@H](CC(=O)O)NC(=O)[C@H](CC(N)=O)NC(=O)[C@@H](NC(=O)[C@H](Cc1ccc(O)cc1)NC(=O)[C@@H](NC(=O)CNC(=O)[C@H](CCC(=O)O)NC(=O)CNC(=O)[C@@H](N)Cc1cnc[nH]1)[C@@H](C)O)[C@@H](C)O)C(C)C)[C@@H](C)O)[C@@H](C)CC)C(=O)N[C@@H](CCCCN)C(=O)NCC(=O)N[C@@H](CCCCN)C(=O)O` (H-HGEGTYTNDVTEYLEEEAAK([γGlu-Aun-Glycoloyl(O-gemfibrozoyl)])EFIEWLIKGK-OH), in that order: “Active”, “Stable”, 0.093 nM and 18.1 h.
Regarding `CC[C@H](C)[C@H](NC(=O)[C@H](CC(C)C)NC(=O)[C@H](Cc1c[nH]c2ccccc12)NC(=O)[C@H](CCC(=O)O)NC(=O)[C@@H](NC(=O)[C@H](Cc1ccccc1)NC(=O)[C@H](CCC(=O)O)NC(=O)C(CCCCNC(=O)CC[C@H](NC(=O)C(CCCCNC(=O)COC(=O)C(C)(C)CCCOc1cc(C)ccc1C)NC(=O)COC(=O)C(C)(C)CCCOc1cc(C)ccc1C)C(=O)O)NC(=O)[C@H](C)NC(=O)[C@H](C)NC(=O)[C@H](CCC(=O)O)NC(=O)[C@H](CCC(=O)O)NC(=O)[C@H](CCC(=O)O)NC(=O)[C@H](CC(C)C)NC(=O)[C@H](Cc1ccc(O)cc1)NC(=O)[C@H](CCC(=O)O)NC(=O)[C@@H](NC(=O)[C@@H](NC(=O)[C@H](CC(=O)O)NC(=O)[C@H](CC(N)=O)NC(=O)[C@@H](NC(=O)[C@H](Cc1ccc(O)cc1)NC(=O)[C@@H](NC(=O)CNC(=O)[C@H](CCC(=O)O)NC(=O)CNC(=O)[C@@H](N)Cc1cnc[nH]1)[C@@H](C)O)[C@@H](C)O)C(C)C)[C@@H](C)O)[C@@H](C)CC)C(=O)N[C@@H](CCCCN)C(=O)NCC(=O)N[C@@H](CCCCN)C(=O)N1CCC[C@H]1C(=O)N[C@@H](CO)C(=O)N[C@@H](CO)C(=O)NCC(=O)N[C@@H](C)C(=O)N1CCC[C@H]1C(=O)N1CCC[C@H]1C(=O)N1CCC[C@H]1C(=O)N[C@@H](C)C(=O)O` (some centres not stated) (H-HGEGTYTNDVTEYLEEEAA[ξK]([γGlu-X2])EFIEWLIKGKPSSGAPPPA-OH), the result with Mus musculus [4] and in the series with Mus musculus [1] was Active. Further, the K on Albumin amounted to 11.8. For the same compound, in series [2], the 50% effective concentration (EC50) is 0.11 nM. Besides, the half-life at 1000 ng/ml in series [3] was 30.4 h.
Consider `CC[C@H](C)[C@H](NC(=O)[C@H](CC(C)C)NC(=O)[C@H](Cc1c[nH]c2ccccc12)NC(=O)[C@H](CCC(=O)O)NC(=O)[C@@H](NC(=O)[C@H](Cc1ccccc1)NC(=O)[C@H](CCC(=O)O)NC(=O)[C@H](CCCCN)NC(=O)[C@H](C)NC(=O)[C@H](C)NC(=O)[C@H](CCC(=O)O)NC(=O)[C@H](CCC(=O)O)NC(=O)[C@H](CCC(=O)O)NC(=O)[C@H](CC(C)C)NC(=O)[C@H](Cc1ccc(O)cc1)NC(=O)[C@H](CCC(=O)O)NC(=O)[C@@H](NC(=O)[C@@H](NC(=O)[C@H](CC(=O)O)NC(=O)[C@H](CC(N)=O)NC(=O)[C@@H](NC(=O)[C@H](Cc1ccc(O)cc1)NC(=O)[C@@H](NC(=O)CNC(=O)[C@H](CCC(=O)O)NC(=O)CNC(=O)[C@@H](N)Cc1cnc[nH]1)[C@@H](C)O)[C@@H](C)O)C(C)C)[C@@H](C)O)[C@@H](C)CC)C(=O)N[C@@H](CCCCN)C(=O)NCC(=O)N[C@@H](CCCCNC(=O)CC[C@H](NC(=O)CCCCCNC(=O)COC(=O)C(C)(C)CCCOc1cc(C)ccc1C)C(=O)O)C(=O)O` (H-HGEGTYTNDVTEYLEEEAAKEFIEWLIKGK([γGlu-Ahx-Glycoloyl(O-gemfibrozoyl)])-OH), for which the result in the series on Mus musculus [1] was Active. In series [5], the Stabilty entry is given as “Stable”. The EC50 in series [2] is 0.38 nM.

The record behind these values is ChEMBL document CHEMBL4765314, “Rational design and biological evaluation of gemfibrozil modified Xenopus GLP-1 derivatives as long-acting hypoglycemic agents” (Eur J Med Chem, 2020).
